Measured values as given in patent publication US20250332105A1, “AMORPHOUS SOLID DISPERSION COMPRISING (S)-1-(1-ACRYLOYLPYRROLIDIN-3-YL)-3-((3,5-DIMETHOXYPHENYL)ETHYNYL)-5-(METHYLAMINO)-1H-PYRAZOLE-4-CARBOXAMIDE” (BEIJING INNOCARE PHARMA TECH CO., LTD., priority 2024, published 2025).
In brackets after ≈: the same amount, converted by molar mass.

Tests used:
[1] = Equilibrium solubility in water; assay type: physicochemical; conditions: after equilibrium in water at room temperature for 24 hours
[2] = Stability assessment of ASD (XRPD, DSC, solubility, relative substances after storage); assay type: physicochemical; conditions: no storage (drug substance)
Excerpt: Capped brown glass vials each containing an ASD sample (HPMCAS-10-SDD and PVPVA-10-HME) were placed inside stability chambers.

[3] = Glass transition temperature determination by DSC; assay type: physicochemical; conditions: 0 to 210° C. at 10° C./min
Description: Type A: Accurately weighted Type A sample (2˜5 mg) was placed in a DSC pan which was then sealed and placed in TA Instruments Q2000. The pan was heated from room temperature to 230° C. at a rate of 20° C./min and after 5 min, rapidly cooled to 0° C. at a rate of 50° C./min. After another 5 min, the DSC analysis was carried out between 0 to 210° C. at a rate of 10° C./min.
ASD: Accurately weighted ASD sample (2˜5 mg) was placed in a DSC pan which was then sealed and placed in TA Instruments Q2000. The pan was heated from room temperature to 135° C. at a rate of 20° C./min and after 5 minutes, rapidly cooled to 0° C. at a rate of 50° C./min. After another 5 min, the DSC analysis was carried out between 0 to 210° C. at a rate of 10° C./min (FIG. 2 and FIG. 3).

[4] = Solubility profiles in pH 6.8 phosphate buffer; assay type: physicochemical; conditions: aqueous buffer, thermodynamic from solid, 37° C., 150 rpm, n = 3
Description: Phosphate buffer (pH 6.8): 3.40 g of potassium dihydrogen phosphate and 0.45 g of sodium hydroxide were dissolved in 500 mL of water.
Type A: About 8.0 mg of Type A sample was added to 20 mL of the phosphate buffer (pH 6.8) in a 30-mL glass vial. The vial was capped, placed in a shaker, and kept shaking with 150 rpm at 37° C. At indicated time intervals (10, 30, 60, 120, 240 min), a fraction of the suspension was removed and filtered through a 0.45-μm filter by discarding the first part of the filtrate. The filtrate was diluted and then analyzed by HPLC.
ASD: An appropriate amount of ASD (about 3.0 mg of Compound I) was added to 7.5 mL of the phosphate buffer (pH 6.8) in a 30-mL glass vial. The vial was capped, placed in a shaker, and kept shaking with 150 rpm at 37° C. At indicated time intervals (10, 30, 60, 120, 240 min), a fraction of the suspension was removed and centrifuged at 12,000 rpm for 5 minutes to give a clear solution that was then analyzed by HPLC.

[5] = In vivo PK, oral administration in beagle dogs; conditions: dog, blood, fasted beagle dogs, 3 mg/kg, Type A as 0.5% MC suspension, HPMCAS-10-SDD as tablet
Description: Type A and HPMCAS-10-SDD were formulated with excipients, respectively. The PK properties of two formulations administered orally in beagle dogs were evaluated. Each formulation was tested in three dogs, each weighed 8˜12 kg.
A formulation was prepared by wet granulation. Firstly, mannitol, pregelatinized starch, sodium carboxymethyl starch and sodium dodecyl sulfate of different amounts were mixed evenly according to Table 8. Secondly, Type A and Povidone K30 were added into an appropriate amount of absolute alcohol, stirred, and mixed as adhesive. Finally, the adhesive was added to the evenly mixed excipients, followed by granulation, drying, addition of magnesium stearate, and mixing into a powder.
The above formulation was added to 0.5% methylcellulose (MC) to give a suspension containing 0.6 mg/mL of Compound I. The suspension was then orally administered to fasted beagle dogs at 5 mL/kg, which was equivalent to a dose of 3 mg/kg. Blood samples were collected at 0.25, 0.5, 1, 2, 4, 8 and 24 hours post dose. Concentrations of Compound I were quantified by LC-MS/MS analysis using an API-4500 mass spectrometer.
A formulation was prepared by dry granulation. […]
Four tablets were orally administered to fasted beagle dogs at a dose of 3 mg/kg. […] Concentrations of Compound I were quantified by LC-MS/MS analysis.

solubility [1]: 6.4 µg/mL (≈ 15.1 µM)
Total Impurities [2]: 0.19%
Tg [3]: 70.1 °C
solubility at 10 min ([4]; 10 min): 4.88 µg/mL (≈ 11.5 µM)
solubility at 30 min ([4]; 30 min): 7.91 µg/mL (≈ 18.7 µM)
solubility at 60 min ([4]; 60 min): 7.81 µg/mL (≈ 18.4 µM)
solubility at 120 min ([4]; 120 min): 7.62 µg/mL (≈ 18 µM)
solubility at 240 min ([4]; 240 min): 8.47 µg/mL (≈ 20 µM)
AUC(0-t) [5]: 1.25 µg·h/mL
Cmax [5]: 0.27 µg/mL
SMILES: C=CC(=O)N1CC[C@H](n2nc(C#Cc3cc(OC)cc(OC)c3)c(C(N)=O)c2NC)C1 [Type A, (S)-1-(1-acryloylpyrrolidin-3-yl)-3-((3,5-dimethoxyphenyl)ethynyl)-5-(methylamino)-1H-pyrazole-4-carboxamide]
